Measurements from patent publication US6277418A, “Corn extract contraceptive” (Baylor College of Medicine, priority 1999, dated 2001).

Assays:
[1] = test system: MCF-7 (ER+) human breast cancer cells; test: MCF-7 cell proliferation (cell number); format: cell-based
Source text: An aliquot of the GCCB crude extract was fractionated on a Spice C18 Cartridge (a reverse phase column using aliphatic groups attached to a matrix to form a hydrophobic adsorbent. Rainin Instruments Company). Briefly, a GCCB extract in 20% methanol in water was loaded onto a spice cartridge and the pass through (20% methanol) fraction was collected. The column was sequentially eluted with a solution of water comprising 40%, 60%, and 80% methanol in water. The final elution was with 100% methanol. Each fraction, including the pass through fraction, was collected and dried at 50° C. under nitrogen to remove methanol. The eluate was re-dissolved in 100% ethanol. […] Six days following treatment, cell number was determined by hemocytometer counts and results are expressed as cell number in treated wells relative to ethanol controls (100%) as described (B. M. Markaverich et al., J. Steroid Biochem. 29:71-78, 1988; B. M. Markaverich et al., Cancer Res. 50: 1470-1478, 1990; B. M. Markaverich et al., JBC 263: 7203-7210, 1988; B. M. Markaverich et al., Internat. J. Oncol. 4:1291-1300, 1994).
In a further study, the effects of fractionated GCCB extract on the proliferation of the MCF-7 and MDA-231 human breast cancer cells were analyzed. […] Six days following treatment, cell number (% Control) was determined. […]
Cell number was determined 6 days following treatment. […]

[2] = target: T1, estrogen receptor (Rattus norvegicus, UniProt P06211); test: [3H]estradiol binding to estrogen receptor in rat uterine cytosol; settings: 10 nM [3H]estradiol, extracts rediluted 1:1000, 1-50 μl
T1 sequence (P06211 1-600): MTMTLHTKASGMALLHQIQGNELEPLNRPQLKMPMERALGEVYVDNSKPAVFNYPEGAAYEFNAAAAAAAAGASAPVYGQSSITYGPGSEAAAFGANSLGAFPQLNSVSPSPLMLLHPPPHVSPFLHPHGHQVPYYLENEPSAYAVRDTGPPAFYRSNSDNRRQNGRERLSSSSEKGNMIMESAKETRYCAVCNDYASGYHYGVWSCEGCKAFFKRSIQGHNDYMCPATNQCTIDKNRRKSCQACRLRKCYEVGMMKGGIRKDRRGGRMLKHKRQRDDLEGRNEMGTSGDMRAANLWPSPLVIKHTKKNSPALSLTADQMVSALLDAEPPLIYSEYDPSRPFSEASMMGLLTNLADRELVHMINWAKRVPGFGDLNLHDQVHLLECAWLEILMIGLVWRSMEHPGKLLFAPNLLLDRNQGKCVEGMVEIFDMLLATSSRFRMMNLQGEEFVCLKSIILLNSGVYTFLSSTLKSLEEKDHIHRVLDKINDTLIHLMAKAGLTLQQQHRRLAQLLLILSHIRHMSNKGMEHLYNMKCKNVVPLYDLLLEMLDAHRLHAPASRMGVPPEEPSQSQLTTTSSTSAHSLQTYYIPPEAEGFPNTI

SMILES	inhibition of MCF-7 proliferation by antiestrogen alone ([1]; 10 nM, in the absence of estrogen, 6 days)	inhibition at 0.01 µM ([1]; Homo sapiens, MCF7, 144 h, read-out: block of the estradiol-induced stimulation of MCF-7 cell proliferation) [%]	competition for [3H]estradiol binding to estrogen receptor [2]
C[C@]12CC[C@@H]3c4ccc(O)cc4C[C@@H](CCCCCCCCC[S+]([O-])CCCC(F)(F)C(F)(F)F)[C@H]3[C@@H]1CC[C@@H]2O (stereo partly drawn) [ICI-182,780]	failed to inhibit	> 50	–
O=c1c(-c2ccc(O)cc2)coc2cc(O)ccc12 [daidzein]	–	–	competitively inhibit
